# According to patent US12053458B2, “Treating sickle cell disease with a pyruvate kinase R activating compound” (Novo Nordisk Health Care AG, priority 2018, dated 2024):
# Values joined by “and” are separate entries in the source; they are usually repeats but may differ in a detail not shown here. Equal entries are not always repeated.
# What was measured:
# PKR-R510Q [1] = target: T1, PKR-R510Q (Homo sapiens, UniProt P30613, R510Q); assay: Luminescence Assay (Kinase Glo Plus), PKR(R510Q); format: biochemical; conditions: 100 μM PEP, 100 μM ADP, read-out: AC50 (PKRR510Q)
# Description: For each tested compound, the ability to activate PKR was determined using the following Luminescence Assay. The effect of phosphorylation of adenosine-5′-diphosphate (ADP) by PKR is determined by the Kinase Glo Plus Assay (Promega) in the presence or absence of FBP (D-fructose-1,6-diphosphate; BOC Sciences, CAS: 81028-91-3) as follows. Unless otherwise indicated, all reagents are purchased from Sigma-Aldrich. All reagents are prepared in buffer containing 50 mM Tris-HCl, 100 mM KCl, 5 mM MgCl2, and 0.01% Triton X100, 0.03% BSA, and 1 mM DTT. Enzyme and PEP (phosphoenolpyruvate) are added at 2× to all wells of an assay-ready plate containing serial dilutions of test compounds or DMSO vehicle. Final enzyme concentrations for PKR(wt), PKR(R510Q), and PKR(G332S) are 0.8 nM, 0.8 nM, and 10 nM respectively. Final PEP concentration is 100 μM. The Enzyme/PEP mixture is incubated with compounds for 30 minutes at RT before the assay is initiated with the addition of 2×ADP and KinaseGloPlus. Final concentration of ADP is 100 μM. […] For assays containing FBP, that reagent is added at 30 μM upon reaction initiation. Reactions are allowed to progress for 45 minutes at RT until luminescence is recorded by the BMG PHERAstar FS Multilabel Reader. The compound is tested in triplicate at concentrations ranging from 42.5 μM to 2.2 nM in 0.83% DMSO. […]
# wt-PKR [2] = target: T2, wt-PKR (Homo sapiens, UniProt P30613); assay: Enzyme assay: effect on Vmax and PEP Km, wt-PKR; format: biochemical; conditions: 2 μM Compound 1; for Vmax: WT-PKR, normalized to 1.00 relative to other values in the row
# Description: (§1) Tests were conducted in the presence and absence of fructose-1,6-bisphosphate (FBP), a known allosteric activator of PKR.
# PKR-R510Q [3] = target: T1, PKR-R510Q; assay: Enzyme assay: effect on Vmax and PEP Km, PKR-R510Q; format: biochemical; conditions: 2 μM Compound 1; for Vmax: PKR R510Q, normalized to 1.00 relative to other values in the row
# Description: as §1
# wt-PKR [4] = target: T2, wt-PKR; assay: Enzyme assay: activation (rate of ATP formation) by different concentrations, wt-PKR; format: biochemical; conditions: PEP at or below Km
# PKR-R510Q [5] = target: T1, PKR-R510Q; assay: Enzyme assay: activation (rate of ATP formation) by different concentrations, PKR-R510Q; format: biochemical; conditions: PEP at or below Km
# PKR = target: T3, PKR (Mus musculus, UniProt P53657); assay: PKR activation in mouse red blood cells; format: cell-based; conditions: mouse RBCs
# T3 construct: Mouse RBCs were isolated fresh from whole blood using a Ficoll gradient; endogenous in cells; host or cells: freshly isolated mouse red blood cells
# Description: (§2) The activation of wt-PKR by Compound 1 in mature human erythrocytes ex vivo was evaluated in purified RBCs purchased from Research Blood Components. Cells treated with Compound 1 for 3 hr in glucose-containing media were washed, lysed, and assayed using a Biovision Pyruvate Kinase Assay (K709-100). The assay was repeated multiple times to account for donor-to-donor variability and the relatively narrow dynamic range.
# Mouse RBCs were isolated fresh from whole blood using a Ficoll gradient and assayed with methods similar to those used in the human RBCs assays.
# Balb/c mice = assay: PK/PD studies in wild type Balb/c mice, oral gavage QD×7; format: in vivo
# Description: Two pharmacokinetic (PK)/phamacodynamic (PD) studies were conducted in Balb/c mice that were administered Compound 1 once daily by oral gavage (formulated in 10% Cremophor EL/10% PG/80% DI water) for 7 days (QD×7) at doses of 0 (vehicle), 3.75, 7.5, 15, 30, 60 mg/kg (Study 1); 0 (vehicle), 7.5, 15, 30, 60, 120, or 240 mg/kg (Study 2). On the 7th day, whole blood was collected 24 hours after dosing and snap frozen. Samples were later thawed and analyzed by LC/MS for 2,3-DPG and ATP levels.
# Berkeley SS mouse = Berkeley SS mouse model of SCD, 7 days in chow; format: in vivo; conditions: 1000 ppm in chow
# Excerpt: Targeted gene deletions and a human transgene in the Berkeley SS mouse model result in mice that express human HgbS almost exclusively (Pászty C. Transgenic and gene knock-out mouse models of sickle cell anemia and the thalassemias. Curr Opin Hematol. 1997 March; 4(2):88-93) and mimic the genetic, hematologic, and histopathologic features of SCD in humans. These include irreversibly sickled RBCs, anemia, and multi-organ pathology.
# The effects of Compound 1 on Hgb affinity for oxygen, percentage of sickled cells, and/or Hgb were evaluated in the Berkley SS mouse. Two studies were conducted where mice received 0 or 1000 ppm Compound 1 ad libitum in mouse chow for 7 days. Blood was drawn on Day 7 and analyzed under hypoxic conditions. Red cell parameters were measured by ADVIA.
# healthy volunteers [6] = assay: Phase 1 single ascending dose (SAD) cohorts; format: in vivo, human
# Excerpt: (§3) This is a first-in-human (FIH), Phase 1 study of Compound 1 that will characterize the safety, PK, and PD of Compound 1 after a single dose and after repeated dosing first in healthy adult volunteers and then in adolescents or adults with sickle cell disease. Initially, a dose range of Compound 1 in single ascending dose (SAD) escalation cohorts will be explored in healthy subjects. Enrollment of healthy subjects into 2-week multiple ascending dose (MAD) escalation cohorts will be initiated once the safety and PK from at least two SAD cohorts is available to inform the doses for the 2-week MAD portion of the study. The MAD cohorts will then run in parallel to the single dose cohorts. A single dose cohort is planned to understand food effects (FE) on the PK of Compound 1. […] Multiple dose studies in SCD subjects will then be initiated upon completion of MAD studies in healthy volunteers. Compound 1 will be administered in 25 mg and 100 mg tablets delivered orally.
# (§4) Four healthy SAD cohorts were evaluated at doses of 200, 400, 700, and 1000 mg, and four healthy MAD cohorts received 200 to 600 mg total daily doses for 14 days at QD or BID dosing (100 mg BID, 200 mg BID, 300 mg BID, and 400 mg QD). In the food effect (FE) cohort, 10 healthy subjects received 200 mg of Compound 1 QD with and without food.
# In the SAD cohorts, the subjects' blood 2,3-DPG levels were measured periodically after dosing by a qualified LC-MS/MS method for the quantitation of 2,3-DPG in blood. Decreased 2,3-DPG blood levels were observed 6 hours following a single dose of Compound 1 at all dose levels (earlier timepoints were not collected). Maximum decreases in 2,3-DPG levels generally occurred ˜24 hours after the first dose with the reduction sustained ˜48-72 hr postdose. Table 14 reports the median percentage change in 2,3-DPG blood levels, relative to baseline, measured over time in healthy volunteers after a single dose of Compound 1 (200 mg, 400 mg, 700 mg, or 1000 mg) or placebo. Accordingly, the median reduction in the concentration of 2,3-DPG, relative to baseline, was at least about 30% at all dose levels tested 24 hours after administration of the single dose.
# In the SAD cohorts, the subjects' P50 (PO2 at 50% hemoglobin saturation) were determined 24-hours post-dose. P50 measured 24 hours after a single dose of Compound 1 were reduced at all dose levels tested (median reduction ranged from ˜3-5 mmHg). Table 15 reports the mean absolute change in P50, relative to baseline, measured 24 hours after a single dose of Compound 1 (200 mg, 400 mg, 700 mg, or 1000 mg) or placebo in healthy volunteers.
# (§5) The following procedures are employed for the analysis of ATP and 2,3-DPG in human whole blood K2EDTA using a protein precipitation extraction procedure and analysis by LC-MS/MS.
# healthy volunteers [7] = assay: Phase 1 multiple ascending dose (MAD) cohorts, 14 days; format: in vivo, human
# Excerpt: as §3, §4
# In the MAD cohorts, the subjects' blood 2,3-DPG levels were measured periodically after dosing by a qualified LC-MS/MS method for the quantitation of 2,3-DPG in blood. The maximum decrease in 2,3-DPG on Day 14 was 55% from baseline (median). […] Table 16 reports the median percentage change in 2,3-DPG blood levels, relative to baseline, measured over time after the first dose on days 1 and 14 in healthy volunteers who received daily doses of Compound 1 (100 mg BID, 200 mg BID, or 300 mg BID) or placebo for 14 days. Accordingly, the median reduction in the concentration of 2,3-DPG, relative to baseline, was at least about 25% at all dose levels tested 24 hours after administration of the first dose on day 1 and at least about 40% at all dose levels tested 24 hours after administration of the first dose on day 14.
# In the MAD cohorts, the subjects' P50 (PO2 at 50% hemoglobin saturation) were determined on day 14. P50 values measured after 14 days of twice daily dosing were reduced at all dose levels tested (median reduction ranged from −3-5 mmHg). Table 17 reports the mean absolute change in P50, relative to baseline, measured on day 14 in healthy volunteers who received daily doses of Compound 1 (100 mg BID, 200 mg BID, or 300 mg BID) or placebo for 14 days.
# In the MAD cohorts, the subjects' blood ATP levels were measured on day 14 by a qualified LC-MS/MS method for the quantitation of ATP in blood. […] Table 18 reports the median percentage change in blood ATP levels, relative to baseline, measured over time after the first dose on day 14 in healthy volunteers who received daily doses of Compound 1 (100 mg BID, or 200 mg BID) or placebo for 14 days.
# as §5
# wt-PKR [8] = target: T2, wt-PKR; assay: PKR activation in mature human erythrocytes ex vivo (Biovision Pyruvate Kinase Assay); format: cell-based; set-up: evaluated in purified RBCs purchased from Research Blood Components; host or cells: purified mature human erythrocytes from donors; conditions: human RBCs, 3 hr treatment
# Description: as §2
# [9] = SAD, all doses and timepoints, N = 24
# [10] = MAD, all doses and timepoints, N = 36
# T2 sequence (P30613 whole entry): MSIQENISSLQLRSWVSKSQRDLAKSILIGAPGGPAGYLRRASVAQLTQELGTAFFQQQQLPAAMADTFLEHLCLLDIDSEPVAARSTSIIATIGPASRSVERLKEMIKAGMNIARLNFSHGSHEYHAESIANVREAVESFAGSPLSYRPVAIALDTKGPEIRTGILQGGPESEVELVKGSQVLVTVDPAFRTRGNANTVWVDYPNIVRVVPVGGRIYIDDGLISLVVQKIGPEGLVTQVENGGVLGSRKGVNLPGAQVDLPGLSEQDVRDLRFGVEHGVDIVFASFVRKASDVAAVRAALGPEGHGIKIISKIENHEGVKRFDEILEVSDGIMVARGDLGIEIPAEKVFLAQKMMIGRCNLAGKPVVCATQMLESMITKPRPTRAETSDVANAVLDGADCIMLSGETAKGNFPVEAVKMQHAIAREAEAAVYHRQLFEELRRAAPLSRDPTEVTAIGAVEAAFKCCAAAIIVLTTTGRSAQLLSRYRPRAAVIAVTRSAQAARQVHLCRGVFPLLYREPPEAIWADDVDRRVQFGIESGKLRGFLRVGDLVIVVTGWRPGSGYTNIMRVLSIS
# T1 sequence (P30613 whole entry R510Q): as the sequence (P30613 whole entry) above, with R510Q counted along it
# T3 sequence (P53657 whole entry): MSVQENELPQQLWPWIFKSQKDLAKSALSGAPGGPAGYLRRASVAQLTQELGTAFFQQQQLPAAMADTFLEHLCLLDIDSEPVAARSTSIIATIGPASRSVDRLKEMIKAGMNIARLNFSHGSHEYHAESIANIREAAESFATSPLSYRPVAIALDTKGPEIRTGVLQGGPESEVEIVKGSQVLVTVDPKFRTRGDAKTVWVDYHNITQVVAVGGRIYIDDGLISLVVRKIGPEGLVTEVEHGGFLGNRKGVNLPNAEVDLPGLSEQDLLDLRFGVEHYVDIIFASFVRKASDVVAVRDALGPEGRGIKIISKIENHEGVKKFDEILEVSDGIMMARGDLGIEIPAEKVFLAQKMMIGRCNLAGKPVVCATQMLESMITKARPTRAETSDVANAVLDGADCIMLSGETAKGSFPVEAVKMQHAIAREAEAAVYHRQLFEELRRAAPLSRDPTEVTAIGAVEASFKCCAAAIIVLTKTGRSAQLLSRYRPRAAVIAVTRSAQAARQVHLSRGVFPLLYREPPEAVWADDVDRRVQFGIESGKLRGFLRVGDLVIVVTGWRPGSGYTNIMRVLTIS
compound,measurement,setting,value
"O=C([C@H](CO)c1ccccc1)N1CC2=C(C1)CN(S(=O)(=O)c1cnc3c(c1)OCCO3)C2 (single isomer, unassigned) [Compound 1]",AC50,PKR-R510Q [1],≤ 100 nM
same,Vmax,wt-PKR [2]; 30 μM FBP,1.16
same,Vmax,wt-PKR [2]; No FBP,1.14
same,Effect on Vmax,wt-PKR [2]; wt-PKR,no effect to a modest increase
same,Reduction of PEP Km,"wt-PKR [2]; wt-PKR, presence or absence of FBP",~2 fold
same,Vmax,PKR-R510Q [3]; 30 μM FBP,1.29
same,Vmax,PKR-R510Q [3]; No FBP,1.56
same,Effect on Vmax,PKR-R510Q [3]; PKR-R510Q,no effect to a modest increase
same,Reduction of PEP Km,"PKR-R510Q [3]; PKR-R510Q, presence or absence of FBP",~2 fold
same,Maximum-fold Activation,wt-PKR [4],<2.0 fold
same,Maximum-fold Activation,PKR-R510Q [5],<3.0 fold
same,"Max − Min (%), Mean",PKR; mean of replicates,<100%
same,Max − Min (%),PKR; single replicates,<50% and <100%
same,Exposure versus dose,"Balb/c mice; mice, oral",increased in a dose-proportional manner
same,Adverse clinical signs,"Balb/c mice; oral QD×7, both studies",No adverse clinical signs were observed
same,Body weight change,"Balb/c mice; oral QD×7, both studies",no differences in body weight change compared with the vehicle group
same,Tolerability,"Balb/c mice; oral QD×7, up to 240 mg/kg, both studies",well tolerated up to the highest dose tested
same,Level of reticulocytes,Berkeley SS mouse,reduced
same,Oxygen affinity to Hgb under hypoxic conditions,Berkeley SS mouse,increased
same,Percentage of RBCs that sickled at low oxygen pressures,Berkeley SS mouse,decreased
same,Time to sickle,Berkeley SS mouse,increased
same,P50,Berkeley SS mouse; hypoxic conditions,decreased
same,"Time of maximum decrease in 2,3-DPG levels after the first dose",healthy volunteers [6]; SAD cohorts,~24 h
same,Serious adverse events / AEs leading to withdrawal,healthy volunteers [6]; SAD cohorts 200-1000 mg,No serious adverse events (SAEs) or AEs leading to withdrawal were reported
same,"2,3-DPG, Mean Maximum Percent Change from Baseline",healthy volunteers [6]; [9],−46.8%
same,"ATP, Mean Maximum Percent Change from Baseline",healthy volunteers [6]; [9],24.4%
same,"Median reduction in the concentration of 2,3-DPG relative to baseline","healthy volunteers [6]; all dose levels, 24 hours after single dose",at least 30%
same,Single dose exposure versus dose,healthy volunteers [6]; doses ≥700 mg,increased in greater than dose-proportional manner
same,"Time of pharmacodynamic maximum (minimum of 2,3-DPG concentration)",healthy volunteers [6]; single dose 400 mg,~24 h
same,Time of pharmacokinetic maximum (maximum of the PK curve),healthy volunteers [6]; single dose 400 mg,1 to 2 h
same,"PK linearity, multiple doses","healthy volunteers [7]; 100-300 mg BID, 400 mg QD",linear PK was observed across all dose levels
same,Serious adverse events / AEs leading to withdrawal,"healthy volunteers [7]; MAD cohorts 200-600 mg total daily, 14 days",No serious adverse events (SAEs) or AEs leading to withdrawal were reported
same,"2,3-DPG, Mean Maximum Percent Change from Baseline",healthy volunteers [7]; [10],−56.3%
same,"ATP, Mean Maximum Percent Change from Baseline",healthy volunteers [7]; [10],68.5%
same,Median reduction of P50,"healthy volunteers [7]; after 14 days of twice daily dosing, all dose levels",−3-5 mmHg
same,Blood ATP levels relative to baseline,"healthy volunteers [7]; day 14, remained so 60 hours after the last dose",elevated
same,"Exposure over time, multiple doses",healthy volunteers [7]; up to day 14,"remained steady up to day 14, without cumulative effect"
same,EC50,wt-PKR [8]; mean of replicates,< 125 nM
same,Max − Min (%),wt-PKR [8]; single replicates,<125% and <150% and <100% and <50%
